Reference: ChEMBL document CHEMBL1156255, “Hit to lead optimization of pyrazolo[1,5-a]pyrimidines as B-Raf kinase inhibitors” (Bioorg Med Chem Lett, 2009)

Tests used:
[1] = target: Serine/threonine-protein kinase B-raf (Homo sapiens, UniProt P15056); experiment: Inhibition of b-Raf
[2] = target: Cyclin-dependent kinase 1 (Homo sapiens, UniProt P06493); experiment: Inhibition of CDK1
[3] = target: Cyclin-dependent kinase 2 (Homo sapiens, UniProt P24941); experiment: Inhibition of CDK2
[4] = Inhibition of PKA
[5] = target: Tyrosine-protein kinase ABL1 (Homo sapiens, UniProt P00519); experiment: Inhibition of Abl1
[6] = target: Protein kinase C alpha type (Homo sapiens, UniProt P17252); experiment: Inhibition of PKCalpha
BXPC-3 = experiment: Antiproliferative activity against human BxPC3 cells; assay type: functional, cell-based
[7] = Permeability at pH 7.4 by PAMPA; assay type: ADME; conditions: read-out: permeability
[8] = target: MAP kinase-activated protein kinase 2 (Homo sapiens, UniProt P49137); experiment: Inhibition of MK2
[9] = target: Rho-associated protein kinase 1 (Homo sapiens, UniProt Q13464); experiment: Inhibition of ROCK1
[10] = Inhibition of p70S6K
[11] = target: Serine/threonine-protein kinase mTOR (Homo sapiens, UniProt P42345); experiment: Inhibition of mTOR
[12] = target: Mitogen-activated protein kinase 8 (Homo sapiens, UniProt P45983); experiment: Inhibition of JNK1
[13] = target: Mitogen-activated protein kinase 1 (Homo sapiens, UniProt P28482); experiment: Inhibition of ERK2
[14] = Half life in rat microsomes; assay type: ADME, Microsome
LoVo = experiment: Antiproliferative activity against human LoVo cells; assay type: functional, cell-based
[15] = target: Mitogen-activated protein kinase kinase kinase kinase 2 (Homo sapiens, UniProt Q12851); experiment: Inhibition of GCK
[16] = Metabolic stability in nude mouse microsomes assessed as half life; assay type: ADME, Microsome
HT-29 = experiment: Antiproliferative activity against human HT-29 cells; assay type: functional, cell-based
[17] = target: Phosphatidylinositol 4,5-bisphosphate 3-kinase catalytic subunit alpha isoform (Homo sapiens, UniProt P42336); experiment: Inhibition of PI3Kalpha
[18] = Antiproliferative activity against human WM266.4 cells; assay type: functional, cell-based; conditions: WM 266-4
[19] = target: Tyrosine-protein kinase Fyn (Homo sapiens, UniProt P06241); experiment: Inhibition of Fyn
[20] = target: Mitogen-activated protein kinase kinase kinase 8 (Homo sapiens, UniProt P41279); experiment: Inhibition of TPL2
Caco-2 = experiment: Antiproliferative activity against human Caco-2 cells; assay type: functional, cell-based
[21] = target: Protein kinase C beta type (Homo sapiens, UniProt P05771); experiment: Inhibition of PKCbeta
[22] = target: Serine/threonine-protein kinase Chk1 (Homo sapiens, UniProt O14757); experiment: Inhibition of CHK1
[23] = Inhibition of RSK
[24] = target: Tyrosine-protein kinase Lck (Homo sapiens, UniProt P06239); experiment: Inhibition of LCK
[25] = Inhibition of CK1gamma
[26] = target: Inhibitor of nuclear factor kappa-B kinase subunit beta (Homo sapiens, UniProt O14920); experiment: Inhibition of IKK-beta
[27] = target: Insulin-like growth factor 1 receptor (Homo sapiens, UniProt P08069); experiment: Inhibition of IGFR1
[28] = target: 3-phosphoinositide-dependent protein kinase 1 (Homo sapiens, UniProt O15530); experiment: Inhibition of PDK1
[29] = target: Proto-oncogene tyrosine-protein kinase Src (Homo sapiens, UniProt P12931); experiment: Inhibition of Src
[30] = target: RAC-alpha serine/threonine-protein kinase (Homo sapiens, UniProt P31749); experiment: Inhibition of PKBalpha
A-375 = experiment: Antiproliferative activity against human A375 cells; assay type: functional, cell-based
[31] = target: Mitogen-activated protein kinase 14 (Homo sapiens, UniProt Q16539); experiment: Inhibition of P38alpha
[32] = target: Serine/threonine-protein kinase PLK1 (Homo sapiens, UniProt P53350); experiment: Inhibition of PLK1

Sequence of Serine/threonine-protein kinase B-raf (P15056 whole entry): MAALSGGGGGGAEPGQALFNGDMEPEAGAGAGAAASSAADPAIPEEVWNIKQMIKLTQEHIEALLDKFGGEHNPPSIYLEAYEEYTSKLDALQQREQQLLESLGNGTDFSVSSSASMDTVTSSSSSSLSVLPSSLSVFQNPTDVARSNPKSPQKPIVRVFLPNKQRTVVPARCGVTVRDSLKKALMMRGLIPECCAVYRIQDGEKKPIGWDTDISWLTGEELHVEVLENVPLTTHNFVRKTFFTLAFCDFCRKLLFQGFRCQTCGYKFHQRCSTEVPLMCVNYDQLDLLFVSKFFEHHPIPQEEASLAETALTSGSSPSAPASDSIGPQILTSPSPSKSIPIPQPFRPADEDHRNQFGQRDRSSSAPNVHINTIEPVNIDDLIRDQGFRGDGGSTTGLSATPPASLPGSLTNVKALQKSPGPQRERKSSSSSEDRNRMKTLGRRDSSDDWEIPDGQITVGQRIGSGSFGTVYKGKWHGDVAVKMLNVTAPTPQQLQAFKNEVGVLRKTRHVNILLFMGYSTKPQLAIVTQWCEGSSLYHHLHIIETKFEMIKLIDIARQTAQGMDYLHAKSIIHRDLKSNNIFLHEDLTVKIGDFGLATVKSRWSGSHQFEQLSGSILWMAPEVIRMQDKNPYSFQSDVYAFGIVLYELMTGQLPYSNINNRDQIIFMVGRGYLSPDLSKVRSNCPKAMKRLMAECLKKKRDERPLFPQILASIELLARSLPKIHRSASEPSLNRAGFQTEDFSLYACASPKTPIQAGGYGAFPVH
Sequence of Serine/threonine-protein kinase Chk1 (O14757 whole entry): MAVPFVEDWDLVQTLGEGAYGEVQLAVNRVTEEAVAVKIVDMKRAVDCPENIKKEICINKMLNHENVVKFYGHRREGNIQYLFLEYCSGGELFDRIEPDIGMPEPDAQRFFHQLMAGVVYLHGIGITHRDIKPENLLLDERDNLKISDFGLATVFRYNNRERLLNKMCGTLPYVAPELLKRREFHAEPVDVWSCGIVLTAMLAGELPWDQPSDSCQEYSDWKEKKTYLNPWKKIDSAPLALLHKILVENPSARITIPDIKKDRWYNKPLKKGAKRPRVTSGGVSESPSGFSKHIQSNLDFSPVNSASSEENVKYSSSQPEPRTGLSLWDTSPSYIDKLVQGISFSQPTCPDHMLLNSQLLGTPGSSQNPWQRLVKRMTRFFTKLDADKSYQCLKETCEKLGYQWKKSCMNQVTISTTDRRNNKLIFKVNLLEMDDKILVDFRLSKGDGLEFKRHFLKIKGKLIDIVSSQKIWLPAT
Sequence of Mitogen-activated protein kinase kinase kinase kinase 2 (Q12851 whole entry): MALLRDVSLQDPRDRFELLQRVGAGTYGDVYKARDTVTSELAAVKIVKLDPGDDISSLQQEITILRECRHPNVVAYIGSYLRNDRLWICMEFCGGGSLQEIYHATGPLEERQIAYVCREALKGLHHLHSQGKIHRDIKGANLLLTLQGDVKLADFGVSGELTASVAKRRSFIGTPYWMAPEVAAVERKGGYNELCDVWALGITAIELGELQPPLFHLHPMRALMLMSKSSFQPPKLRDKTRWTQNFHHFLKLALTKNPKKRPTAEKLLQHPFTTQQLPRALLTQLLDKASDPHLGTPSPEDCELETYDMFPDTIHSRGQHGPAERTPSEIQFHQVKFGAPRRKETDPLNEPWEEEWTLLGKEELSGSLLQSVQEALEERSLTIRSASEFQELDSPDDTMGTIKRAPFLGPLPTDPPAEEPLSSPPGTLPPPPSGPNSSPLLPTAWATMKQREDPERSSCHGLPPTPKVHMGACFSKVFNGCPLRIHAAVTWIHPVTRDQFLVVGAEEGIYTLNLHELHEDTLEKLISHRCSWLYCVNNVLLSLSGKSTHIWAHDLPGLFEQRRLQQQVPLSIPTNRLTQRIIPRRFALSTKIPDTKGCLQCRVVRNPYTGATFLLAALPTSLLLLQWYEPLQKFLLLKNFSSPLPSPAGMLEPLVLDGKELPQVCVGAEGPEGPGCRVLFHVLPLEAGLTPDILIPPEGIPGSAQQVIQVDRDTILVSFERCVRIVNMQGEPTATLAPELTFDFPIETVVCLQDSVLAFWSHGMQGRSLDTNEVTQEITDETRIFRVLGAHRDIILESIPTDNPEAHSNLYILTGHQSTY
Sequence of Tyrosine-protein kinase Fyn (P06241 whole entry): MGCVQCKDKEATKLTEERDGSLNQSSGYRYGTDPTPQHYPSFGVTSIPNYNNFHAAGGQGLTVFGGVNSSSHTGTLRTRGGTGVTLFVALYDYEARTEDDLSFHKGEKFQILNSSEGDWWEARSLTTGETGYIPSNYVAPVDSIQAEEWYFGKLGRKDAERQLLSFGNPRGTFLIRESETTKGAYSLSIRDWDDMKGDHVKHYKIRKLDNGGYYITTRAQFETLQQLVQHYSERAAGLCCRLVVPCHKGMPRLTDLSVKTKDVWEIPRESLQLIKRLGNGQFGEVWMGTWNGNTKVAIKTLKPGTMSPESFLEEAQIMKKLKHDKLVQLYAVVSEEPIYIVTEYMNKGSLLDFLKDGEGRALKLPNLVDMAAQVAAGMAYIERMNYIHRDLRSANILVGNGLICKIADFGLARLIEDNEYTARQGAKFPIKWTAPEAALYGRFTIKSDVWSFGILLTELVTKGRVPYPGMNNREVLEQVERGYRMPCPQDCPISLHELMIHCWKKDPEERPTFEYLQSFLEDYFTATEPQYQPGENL
Sequence of 3-phosphoinositide-dependent protein kinase 1 (O15530 whole entry): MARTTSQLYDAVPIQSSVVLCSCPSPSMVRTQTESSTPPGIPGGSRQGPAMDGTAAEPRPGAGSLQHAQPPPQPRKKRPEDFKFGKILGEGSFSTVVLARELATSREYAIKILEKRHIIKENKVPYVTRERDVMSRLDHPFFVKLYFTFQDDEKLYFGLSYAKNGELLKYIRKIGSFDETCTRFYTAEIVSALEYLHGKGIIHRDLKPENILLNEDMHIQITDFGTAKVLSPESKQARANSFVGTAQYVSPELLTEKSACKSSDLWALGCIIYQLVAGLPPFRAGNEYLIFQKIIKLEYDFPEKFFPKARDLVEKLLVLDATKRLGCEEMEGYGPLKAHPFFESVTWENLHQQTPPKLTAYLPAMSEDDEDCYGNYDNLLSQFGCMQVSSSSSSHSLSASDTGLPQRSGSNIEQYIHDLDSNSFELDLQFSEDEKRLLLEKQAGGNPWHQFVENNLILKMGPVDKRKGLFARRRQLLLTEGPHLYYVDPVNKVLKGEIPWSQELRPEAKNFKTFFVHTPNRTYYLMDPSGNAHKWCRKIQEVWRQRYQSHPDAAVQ
Sequence of Insulin-like growth factor 1 receptor (P08069 31-736 limits assumed): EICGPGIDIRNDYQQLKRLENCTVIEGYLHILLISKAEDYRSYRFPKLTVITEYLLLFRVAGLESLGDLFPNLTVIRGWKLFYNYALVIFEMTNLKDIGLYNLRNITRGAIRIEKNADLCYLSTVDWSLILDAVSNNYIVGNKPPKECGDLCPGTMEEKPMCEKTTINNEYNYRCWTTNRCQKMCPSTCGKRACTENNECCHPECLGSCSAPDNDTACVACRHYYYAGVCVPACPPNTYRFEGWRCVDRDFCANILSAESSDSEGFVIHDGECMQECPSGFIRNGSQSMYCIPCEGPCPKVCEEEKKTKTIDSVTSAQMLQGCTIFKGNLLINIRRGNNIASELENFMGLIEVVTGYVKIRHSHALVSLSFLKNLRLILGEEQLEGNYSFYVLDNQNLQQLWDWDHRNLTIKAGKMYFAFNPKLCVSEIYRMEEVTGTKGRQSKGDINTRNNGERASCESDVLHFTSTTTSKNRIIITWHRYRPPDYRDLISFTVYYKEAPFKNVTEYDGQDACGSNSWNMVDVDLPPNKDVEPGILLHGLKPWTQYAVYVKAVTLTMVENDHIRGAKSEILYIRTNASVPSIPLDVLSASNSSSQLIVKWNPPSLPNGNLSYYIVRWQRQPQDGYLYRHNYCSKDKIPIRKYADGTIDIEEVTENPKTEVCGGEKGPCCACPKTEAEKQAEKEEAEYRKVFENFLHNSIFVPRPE
Sequence of Insulin-like growth factor 1 receptor (P08069 741-1367 limits assumed): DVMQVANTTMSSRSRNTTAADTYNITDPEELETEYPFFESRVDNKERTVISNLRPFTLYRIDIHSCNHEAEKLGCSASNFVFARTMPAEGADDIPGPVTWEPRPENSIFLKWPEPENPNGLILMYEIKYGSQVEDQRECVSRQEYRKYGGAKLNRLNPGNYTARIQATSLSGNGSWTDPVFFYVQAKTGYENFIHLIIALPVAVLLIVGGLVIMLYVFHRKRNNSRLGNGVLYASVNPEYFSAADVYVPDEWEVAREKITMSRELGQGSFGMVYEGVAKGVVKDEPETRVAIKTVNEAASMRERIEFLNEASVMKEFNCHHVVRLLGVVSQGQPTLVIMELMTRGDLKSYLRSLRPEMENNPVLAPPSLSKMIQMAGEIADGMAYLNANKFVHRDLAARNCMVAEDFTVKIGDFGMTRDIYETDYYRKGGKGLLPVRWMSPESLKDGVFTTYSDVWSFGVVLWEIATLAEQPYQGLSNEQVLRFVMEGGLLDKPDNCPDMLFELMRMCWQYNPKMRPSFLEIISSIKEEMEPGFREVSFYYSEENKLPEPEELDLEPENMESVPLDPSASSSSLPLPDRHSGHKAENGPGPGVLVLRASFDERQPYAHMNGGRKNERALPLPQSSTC
Sequence of Mitogen-activated protein kinase 8 (P45983 whole entry): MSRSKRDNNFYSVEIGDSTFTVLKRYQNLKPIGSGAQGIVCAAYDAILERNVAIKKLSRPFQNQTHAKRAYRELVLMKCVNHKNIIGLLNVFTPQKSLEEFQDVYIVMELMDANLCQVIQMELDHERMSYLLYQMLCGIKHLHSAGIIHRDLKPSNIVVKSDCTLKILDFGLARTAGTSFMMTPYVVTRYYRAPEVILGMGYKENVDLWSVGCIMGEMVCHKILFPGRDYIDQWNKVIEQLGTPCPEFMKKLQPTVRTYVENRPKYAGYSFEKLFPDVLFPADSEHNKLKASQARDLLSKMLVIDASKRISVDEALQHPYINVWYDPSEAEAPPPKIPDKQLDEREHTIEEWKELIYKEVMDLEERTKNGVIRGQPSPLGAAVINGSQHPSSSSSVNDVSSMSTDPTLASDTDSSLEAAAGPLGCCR

Structure (SMILES): Cn1cncc1-c1cc2nccc(-c3cccc(NC(=O)c4cccc(C(F)(F)F)c4)c3)n2n1
- IC50 [1]: 100 nM

Structure (SMILES): O=C(Nc1cccc(-c2ccnc3cc(-c4ccncc4)nn23)c1)Nc1ccc(Cl)c(C(F)(F)F)c1
- IC50 [1]: 40 nM

Structure (SMILES): O=C(Nc1cccc(-c2ccnc3cc(-c4ccnc(NCCCc5ncc[nH]5)c4)nn23)c1)c1cccc(C(F)(F)F)c1
- IC50 [1]: 66 nM

Structure (SMILES): O=C(Nc1cccc(-c2ccnc3cc(-c4cnc[nH]4)nn23)c1)c1cccc(C(F)(F)F)c1
- IC50 [1]: 1600 nM

Structure (SMILES): O=C(Nc1cccc(-c2ccnc3cc(-c4ccncc4)nn23)c1)c1cccc(C(F)(F)F)c1
- IC50 [2]: > 50 µM
- IC50 [3]: > 50 µM
- IC50 [4]: > 50 µM
- IC50 [5]: > 50 µM
- IC50 [6]: > 50 µM
- IC50 (BXPC-3): 3.1 µM
- Papp [7]: 251 ×10⁻⁶ cm/s
- IC50 [8]: > 50 µM
- IC50 [9]: > 50 µM
- IC50 [10]: > 50 µM
- IC50 [11]: > 50 µM
- IC50 [12]: > 50 µM
- IC50 [13]: > 50 µM
- half-life [14]: > 30 min
- IC50 (LoVo): 400 nM
- IC50 [15]: > 50 µM
- half-life [16]: 24 min
- IC50 (HT-29): 350 nM
- IC50 [17]: > 50 µM
- IC50 [18]: 3.5 µM
- IC50 [19]: > 50 µM
- IC50 [20]: > 50 µM
- IC50 (Caco-2): 2600 nM
- IC50 [21]: > 50 µM
- IC50 [22]: > 50 µM
- IC50 [23]: > 50 µM
- IC50 [24]: > 50 µM
- IC50 [25]: > 50 µM
- IC50 [26]: > 50 µM
- IC50 [27]: > 50 µM
- IC50 [28]: > 50 µM
- IC50 [29]: > 50 µM
- IC50 [30]: > 50 µM
- IC50 (A-375): 280 nM
- IC50 [31]: > 50 µM
- IC50 [32]: > 50 µM

Structure (SMILES): O=C(Nc1cccc(-c2ccnc3cc(-c4cccnc4)nn23)c1)c1cccc(C(F)(F)F)c1
- IC50 [1]: > 10000 nM

Structure (SMILES): O=C(Nc1cccc(-c2ccnc3cc(-c4ccncc4)nn23)c1)c1ccc(Cl)c(C(F)(F)F)c1
- IC50 [1]: 60 nM

Structure (SMILES): O=C(Nc1cccc(-c2ccnc3cc(-c4ccnc(NCCCN5CCCC5=O)c4)nn23)c1)c1cccc(C(F)(F)F)c1
- IC50 [1]: 110 nM

Structure (SMILES): O=C(Nc1cccc(-c2ccnc3cc(-c4ccnc(NCCCN5CCOCC5)c4)nn23)c1)c1cccc(C(F)(F)F)c1
- IC50 [1]: 130 nM

Structure (SMILES): O=C(Nc1cccc(-c2ccnc3cc(-c4ccncc4)nn23)c1)c1ccc(Cl)c(Cl)c1
- IC50 [1]: 660 nM
